A short description of data set [1]: Plasma level of thienamycin class compound in the mouse. The conditions noted are these: po, 10 mg/kg; for concentration at 0.5 h: 30 minutes; for concentration at 1 h: 60 minutes; for concentration at […]: 90 minutes. The class given is in vivo. As for the experimental part:
(§1) An in vivo assay is conducted using 34 Charles River CD female mice. Seventeen of the mice are administered 40 mg/kg of the inhibitor 7-(L-2-amino-2-carboxyethylthio)-2-(2,2-dimethylcyclopropanecarboxamido)-2-heptenoic acid subcutaneously, and an additional 40 mg/kg per os. Immediately thereafter they and an additional 17 mice are administered 10 mg/kg of the thienamycin class compoud (±)-[5R,6S]-2-ethylthio-6[(R)-1-hydroxyethyl]-pen-2-em-3-sodiocarboxylate by oral gavage. The level of the latter compound in plasma is tested at 10, 30, 60 and 90 minutes using 3 mice from each group at each time period.

Data set [2] in a line: Urinary recovery of thienamycin class compound in the mouse. The format is in vivo. The note with it: urine, po, 10 mg/kg; for dose excreted: Total. As for the experimental part:
as §1
The remaining 5 mice from each group are tested for urinary recovery of the thienamycin class compound with the following results.

The target of data set [3] is T1, renal dipeptidase (E.C.3.4.13.11) (Sus scrofa, UniProt P22412).
T1 construct: solubilized preparation of dipeptidase isolated from hog kidneys; from tissue; host or cells: hog kidney
T1 sequence (P22412 17-409): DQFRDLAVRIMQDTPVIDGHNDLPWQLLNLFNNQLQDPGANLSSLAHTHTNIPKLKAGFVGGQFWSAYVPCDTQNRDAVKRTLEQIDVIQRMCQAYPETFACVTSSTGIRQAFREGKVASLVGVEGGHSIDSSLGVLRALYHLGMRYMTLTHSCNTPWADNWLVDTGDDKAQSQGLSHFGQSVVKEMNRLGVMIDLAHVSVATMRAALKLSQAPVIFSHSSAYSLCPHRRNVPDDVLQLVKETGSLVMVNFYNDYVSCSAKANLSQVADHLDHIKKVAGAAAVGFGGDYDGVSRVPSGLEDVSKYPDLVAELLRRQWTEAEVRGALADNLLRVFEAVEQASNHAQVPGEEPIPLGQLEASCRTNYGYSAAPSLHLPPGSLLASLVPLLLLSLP
Briefly: Inhibition of glycyldehydrophenylalanine (GDP) hydrolysis by renal dipeptidase in vitro. The format is biochemical, pig (hog). How it is done:
This measured the ability of compounds to inhibit hydrolysis of glycyldehydrophenylalanine (GDP) by a solubilized preparation of dipeptidase isolated from hog kidneys The procedure is as follows to a 1 ml. system containing 50 mM "MOPS" (3-(N-morpholino)propanesulfonic acid) buffer, pH 7.1, is added 5 μg of lyophilized enzyme, and the test compound at a final concentration of 0.1 mM. After a five minute incubation at 37° C., GDP is added to a final concentration of 0.05 mM. Incubation is continued for 10 minutes, at 37° C. and hydrolysis of GDP is measured by the change in optical density with time at 275 nm. Inhibition of the enzyme is gauged by comparison to a standard run containing no inhibitor and is expressed as the inhibitor binding constant, Ki.
A 1 ml. system of 50 mM "MOPS" buffer, pH 7.1, is used. To this is added 5 μg of the pig renal enzyme and an amount of the test compound to bring its final concentration to 0.1 mM. After a five minute incubation at 37° C., an amount of GDP is added to bring its final concentration to 0.05 mM. The system is again incubated for 10 minutes, at 37° C. Hydrolysis of GDP is measured by its change in optical density with time at 275 nm. Inhibition of the enzyme is gauged by comparison to a standard run containing no inhibitor and is presented as percent inhibition.

Setting [4] is: 10 mg/kg oral plus inhibitor (40 mg/kg SC + 40 mg/kg per os).
The mark [5] stands for this setting: concentration producing 50% inhibition, substrate GDP 0.05 mM, pH 7.1, 37° C., read-out: Ki.

Read-outs that look alike come from different tables or passages of the source.

As usually defined, the Ki is the dissociation constant of the complex between target and ligand, obtained from inhibition or displacement. One may read the inhibition as the percentage by which the read-out fell short of the control.

Regarding `CCSC1=C(C(=O)O)N2C(=O)[C@H]([C@@H](C)O)[C@H]2S1` (relative stereo) [Thienamycin Class Compound, (±)-[5R,6S]-2-ethylthio-6[(R)-1-hydroxyethyl]-pen-2-em-3-sodiocarboxylate], in data set [1] (setting [4]), the concentration at 10 min turned out to be 2600 µg/mL, the concentration at 0.5 h came to 4800 µg/mL, the concentration at 1 h was found to be 6100 µg/mL and the concentration at […] was 3800 µg/mL. Besides, in data set [1] (compound alone, 10 mg/kg oral), the concentration at 10 min came out at 3100 µg/mL, the concentration at 0.5 h is 3700 µg/mL, the concentration at 1 h amounted to 4400 µg/mL and the concentration at […] was 1800 µg/mL. Further, in data set [2] (setting [4]), the dose excreted at 1 h turned out to be 1.5%, the dose excreted at 3 h amounted to 2.3% and the dose excreted was found to be 3.8%. Moreover, in data set [2] (compound alone, 10 mg/kg oral), the dose excreted at 1 h was 1.8%, the dose excreted at 3 h is 0.6% and the dose excreted came out at 2.4%.

Take `C/C=C(\NC(=O)C1CC1C)C(=O)O` (stereo not shown) [Compound 3]: the Ki in data set [3] (setting [5]) amounted to 1.7 µM.

For the compound `CC/C=C(\NC(=O)CC(C)C)C(=O)O` [Compound 4], the inhibitory constant (Ki) in data set [3] (setting [5]) worked out at 3.2 µM.

For the compound `C/C=C(\NC(=O)CC(C)CC(C)(C)C)C(=O)O` (stereo not shown) [Compound 5], the Ki in data set [3] (setting [5]) turned out to be 4.4 µM.

Take `C/C=C(\NC(=O)C1C(C)C1C)C(=O)O` (stereo not shown) [Compound 6]: the Ki in data set [3] (setting [5]) is 4.6 µM.

On to `C/C=C(\NC(=O)C1CCC1)C(=O)O` [Compound 8], for which the inhibition constant (Ki) in data set [3] (setting [5]) is 6.2 µM.

With `C/C=C(\NC(=O)CC1CCC1)C(=O)O` [Compound 9], the inhibition constant (Ki) in data set [3] (setting [5]) turned out to be 6.6 µM.

Take `C/C=C(\NC(=O)CC(C)CC)C(=O)O` (stereo not shown) [Compound 11]: the Ki in data set [3] (setting [5]) worked out at 10 µM.

With `C[N+](C)(C)CCCCC/C=C(\NC(=O)C1CC1(Cl)Cl)C(=O)[O-]` (stereo not shown) [Compound 13], in data set [3] (setting [5]), the inhibition constant Ki amounted to 0.18 µM.

Turning to `CC1(C)CC1C(=O)N/C(=C\CCCCC[N+](C)(C)C)C(=O)[O-]` (stereo not shown) [Compound 14], in data set [3] (setting [5]), the inhibition constant (Ki) stood at 1.11 µM.

Regarding `CC(=N)NCCCCC/C=C(\NC(=O)C1CC1(C)C)C(=O)O` (stereo not shown) [Compound 15], in data set [3] (setting [5]), the Ki worked out at 0.72 µM.

`CC1(C)CC1C(=O)N/C(=C\CCCCSC[C@H](N)C(=O)O)C(=O)O` (stereo partly shown) [Compound 17] gave an inhibition constant (Ki) in data set [3] of 0.21 µM.

As for `C/C=C(\NC(=O)CCCCCCC)C(=O)O` [Compound 19, Z-2-octanamido-2-butenoic acid], the Ki in data set [3] (setting [5]) worked out at 26 µM.

For `C/C=C(\NC(=O)CCC)C(=O)O` [Compound 20, Z-2-butyramido-2-butenoic acid], the Ki in data set [3] (setting [5]) was determined as 30 µM.

For `C/C=C(\NC(=O)CCCC1CCCCC1)C(=O)O` [Compound 21], in data set [3] (setting [5]), the Ki worked out at 30 µM.

With `C/C=C(\NC(=O)CC1CC1)C(=O)O` [Compound 22], the Ki in data set [3] (setting [5]) is 22 µM.

Consider `C/C=C(\NC(=O)CCCC)C(=O)O` [Compound 23, Z-2-valeramido-2-butenoic acid], for which, in data set [3] (setting [5]), the Ki is 32 µM.

With `C/C=C(\NC(=O)C1CCCC1)C(=O)O` [Compound 24], the inhibition constant (Ki) in data set [3] (setting [5]) was determined as 30 µM.

In the case of `O=C(O)CC/C=C(\NC(=O)C1CC1)C(=O)O` [Compound 33], the Ki in data set [3] (setting [5]) was 5 µM.

With `C/C=C(\NC(=O)CC(C)CCOC)C(=O)O` (stereo not shown) [Compound 34], the Ki in data set [3] (setting [5]) was 9 µM.

For the compound `C/C=C(\NC(=O)CCCCCBr)C(=O)O` [Compound 35], the inhibition constant Ki in data set [3] (setting [5]) is 19 µM.

In the case of `C/C=C(\NC(=O)CCCc1ccccc1)C(=O)O` [Compound 37], in data set [3] (setting [5]), the Ki stood at 11 µM.

Consider `C/C=C(\NC(=O)C1CC1C(C)(C)C)C(=O)O` (stereo not shown) [Compound 38], for which the inhibition constant (Ki) in data set [3] (setting [5]) was 6.5 µM.

As to `CCCCC/C=C(\NC(=O)CC(C)C)C(=O)O` [Compound 39, Z--isovaleramido-2-octenoic acid], the inhibition constant Ki in data set [3] (setting [5]) was 2.6 µM.

For the compound `C/C=C(\NC(=O)C1CC1(C)CC)C(=O)O` (stereo not shown) [Compound 40], in data set [3] (setting [5]), the Ki turned out to be 0.45 µM.

`CC(C)/C=C(\NC(=O)C1CC1(C)C)C(=O)O` (stereo not shown) [Compound 41] registered an inhibition at 100 µM in data set [3] (10^-4 M inhibitor, 0.05 mM GDP, pH 7.1, 37° C.) of 98%. Also, in data set [3] (setting [5]), the Ki stood at 0.54 µM.

With `C/C=C(\NC(=O)C1CC1(CC)CC)C(=O)O` (stereo not shown) [Compound 42], in data set [3] (setting [5]), the inhibitory constant (Ki) amounted to 0.86 µM.

As to `C/C=C(\NC(=O)C1CC1CC)C(=O)O` (stereo not shown) [Compound 43], in data set [3] (setting [5]), the Ki turned out to be 1.6 µM.

For `C/C=C(\NC(=O)C1CC1(C)C(C)C)C(=O)O` (stereo not shown) [Compound 44], the inhibitory constant (Ki) in data set [3] (setting [5]) amounted to 3 µM.

With `CC/C=C(\NC(=O)C1CC1(C)C)C(=O)O` (stereo not shown) [Compound 45], the Ki in data set [3] (setting [5]) was determined as 0.18 µM.

In the case of `CC1(C)CC1C(=O)N/C(=C\c1ccccc1)C(=O)O` (stereo not shown) [Compound 46], in data set [3] (setting [5]), the Ki worked out at 0.62 µM.

`CCC/C=C(\NC(=O)C1CC1(C)C)C(=O)O` (stereo not shown) [Compound 47]: the Ki in data set [3] (setting [5]) came out at 0.11 µM.

For the compound `CC(C)C/C=C(\NC(=O)C1CC1(C)C)C(=O)O` (stereo not shown) [Compound 48], the Ki in data set [3] (setting [5]) was determined as 0.23 µM.

With `CCCC/C=C(\NC(=O)C1CC1(C)C)C(=O)O` (stereo not shown) [Compound 49], the inhibition constant (Ki) in data set [3] (setting [5]) turned out to be 0.11 µM.

With `CCCCC/C=C(\NC(=O)C1CC1(C)C)C(=O)O` (stereo not shown) [Compound 50], in data set [3] (setting [5]), the inhibitory constant (Ki) worked out at 0.17 µM.

`CC1(C)CC1C(=O)N/C(=C\CC1CCCCC1)C(=O)O` (stereo not shown) [Compound 52]: the inhibition constant Ki in data set [3] (setting [5]) came to 0.15 µM.

With `CC1(C)CC1C(=O)N/C(=C\CCc1ccccc1)C(=O)O` (stereo not shown) [Compound 53], in data set [3] (setting [5]), the Ki amounted to 0.33 µM.

`CSCC/C=C(\NC(=O)C1CC1(C)C)C(=O)O` (stereo not shown) [Compound 54]: the inhibition constant (Ki) in data set [3] (setting [5]) amounted to 0.12 µM.

Regarding `CC1(C)CC1C(=O)N/C(=C\CCS(C)(=O)=O)C(=O)O` (stereo not shown) [Compound 55], in data set [3] (setting [5]), the inhibitory constant (Ki) worked out at 0.5 µM.

With `CCCCCCCCCC/C=C(\NC(=O)C1CC1(C)C)C(=O)O` (stereo not shown) [Compound 58], the Ki in data set [3] (setting [5]) worked out at 0.14 µM.

With `COCCC/C=C(\NC(=O)C1CC1(C)C)C(=O)O` (stereo not shown) [Compound 60], the Ki in data set [3] (setting [5]) was found to be 0.28 µM.

Turning to `COCC/C=C(\NC(=O)C1CC1(C)C)C(=O)O` (stereo not shown) [Compound 61], the inhibitory constant (Ki) in data set [3] (setting [5]) is 0.32 µM.

For `CC(C)(C)C/C=C(\NC(=O)C1CC1(C)C)C(=O)O` (stereo not shown) [Compound 62], the inhibition constant (Ki) in data set [3] (setting [5]) came to 0.34 µM.

Turning to `CC(C)CC/C=C(\NC(=O)C1CC1(C)C)C(=O)O` (stereo not shown) [Compound 63], the inhibition constant Ki in data set [3] (setting [5]) worked out at 0.15 µM.

With `CCCCC/C=C(\NC(=O)[C@H]1CC1(C)C)C(=O)O` [Compound 66], the inhibitory constant (Ki) in data set [3] (setting [5]) amounted to 0.08 µM.

As for `CC(NCCCCC/C=C(\NC(=O)C1CC1(C)C)C(=O)O)P(=O)(O)O` (stereo not shown) [Example 18B], the Ki in data set [3] (Example 18B, unit inferred, read-out: Ki) was 0.16 µM.

As for `CCCCC/C=C(\NC(=O)[C@H]1CC1(C)C)C(=O)O` [dextrorotatory isomer, Z-2-(2,2-dimethylcyclopropanecarboxamido)-2-octenoic acid], the “activity of resolved isomers” value in data set [3] (resolved racemic Z-2-(2,2-dimethylcyclopropanecarboxamido)-2-octenoic acid) is listed as “The activity resides in the dextrorotatory isomer”.

These data come from patent US4616038A, “Combination of thienamycin-type antibiotics with dipeptidase inhibitors” (Merck & Co., Inc., priority 1985, dated 1986).
